This note sets out measurements from patent publication US20230390366A1, “PARAPHARMACEUTICAL OR PHARMACEUTICAL COMPOSITION ADMINISTRABLE TO A LIVING BEING, PREFERABLY A HUMAN BEING, COMPRISING AT LEAST ONE ENZYME FOR THE TREATMENT AND/OR PREVENTION OF BACTERIAL INFECTIONS INVOLVING BIOFILM FORMATION” (priority 2020, published 2023).

Common to all, as to format: cell-based
The subject of series [1] is S. epidermidis ATCC35984 biofilm. Kind of series: Curative enzyme treatment followed by 24 hours vancomycin, biofilm on titanium coupons, viability by CFU counting. The settings on record: vancomycin 20 mg/L, absence of enzyme treatment (CT−, TGN). The source says:
(§1) Two different biofilm models were used: static biofilm in 96-well plate (as described previously) and biofilm on titanium coupons. Titanium was chosen because it is a material widely used in the manufacture of implants (e.g. orthopaedic prostheses, dental implants, heart valves, pacemakers, etc.). The techniques used to measure viability differ between the two models and are detailed below.
(§2) In this model, viability was quantified after detachment and homogenisation of the biofilm via the technique of spreading and counting cells on a TSA culture media (VWR).
(§3) Titanium coupons (n=3 for each condition) were placed in the wells of a 12-well plate and incubated at 37° C. with agitation (50 rpm) for 24 hours in 3 ml of bacterial inoculum at an OD of 0.005 (10^6 CFU/ml) in order to allow biofilm to form. The coupons were then washed 2× with PBS (2 ml) and treated for 1 hour at 37° C. with the composition according to the invention or the solution without enzymes (CT−=20 mM TrisHCl pH7). The coupons were then washed twice with PBS (2 ml) and reincubated in 750 μl of TGN containing 0 or 20 mg/L of vancomycin for 24 hours at 37° C. with agitation (50 rpm). After two washes with PBS (2 ml), the biofilm was detached and homogenised in 2 ml of PBS. Different dilutions were carried out (from 10 to 10) and 10 μl of each dilution was spread on a TSA dish. Colonies (CFU) were counted after 18 hours of incubation at 37° C.
(§4) To analyse the effect of the compositions according to the invention, a statistical test (one-way ANOVA and Tukey's post-hoc test) was carried out. This test compares the fluorescence (viability) or absorbance (biomass) values of the CT− negative control (=treatment with buffer without enzymes) and of the biofilms treated with the enzyme compositions, at each vancomycin concentration. The difference is significant when the pvalue of the statistical test is less than or equal to 0.05 (* used on graphs). When this is specified in the comparative examples, the activity of the various enzyme compositions is compared (one-way ANOVA and post-hoc Tukey test).

Series [2] relates to S. aureus biofilm. The series is described as above. The settings on record: vancomycin 20 mg/L.
Text: as §1, §2, §3, §4

Series [3] deals with S. aureus ATCC33591 biofilm. Put plainly: Curative enzyme treatment followed by 24 hours vancomycin, biofilm in 96-well plates, viability (resazurin) and biomass (crystal violet). The settings on record: vancomycin 10 mg and 20 mg/L, absence of enzyme treatment. As for the experimental part: For the tests described below, vancomycin was used as the antibiotic molecule. The antibiotic was added at different concentrations in TGN for 24 hours at 37° C. on the biofilms pretreated with the enzyme composition according to the invention (see the below sections). The biofilm was then washed before carrying out the biomass and viability measurements.
In this model, cell viability was measured indirectly, by measuring the metabolism of cells in the biofilm. Indeed, viability was quantified by tracking changes in the colour of resazurin (7-Hydroxy-3H-phenoxazin-3-one 10 oxide) (prestoBlue, ThermoFisher). […] The quantification of resorufin was carried out by measuring fluorescence. […]
The experimental method for cultivating the strains and forming the biofilm is described in point 1.1 of this document. […] The biofilms were then washed 2× with PBS (200 μl) before biomass and viability were analysed. Biomass was quantified via the CV staining technique following the procedure described in point 1.1. […] The plate containing all the samples was then incubated for 24 hours at 37° C. in the spectraMax M3 plate reader. Fluorescence was measured every 10 minutes for 18 hours (excitation 560 nm, emission 590 nm). […]

Another series has as its system MG63 osteoblasts. On the procedure:
Cytotoxicity tests were performed on MG63 osteoblasts and other cell types.

Series [4] concerns biofilms comprising Candida albicans. Kind of series: Enzyme treatment of biofilms comprising Candida albicans followed by antifungal/antibiotic. The settings on record: Candida albicans alone or with S. aureus and/or E. coli; enzymes 30 minutes or 1 hour, then Caspofungin (and Moxifloxacin or Meropenem) 24 hours. The source says: The inventors then attempted to treat biofilms comprising Candida albicans, either in monoculture or in complex biofilm models comprising Candida albicans and prokaryotes. Different strains of Candida albicans were used: the ATCC24433 strain, as well as strains isolated from orthopaedic prosthesis infections. Subtilisin (protease from Bacillus licheniformis) and lyticase (from Arthrobacter luteus or Bacillus subtilis) were obtained at Sigma. The other enzymes are those used above.
The antifungal drug Caspofungin (Merck Sharp & Dohme) and, for complex biofilms additionally comprising one or more prokaryotes, the antibiotics Moxifloxacin HCl (Bayer) or Meropenem (Mylan) were used (24 hours of treatment, after the application of enzymes).

Series [5] deals with S. epidermidis ATCC35984 biofilm. Put plainly: Curative enzyme treatment (1 hour, 37° C.) of preformed 24-hour biofilm in 96-well plates, residual biomass by crystal violet staining (A570). The settings on record: 100 U/ml in TGN, vs CT−, 1 biofilm/3 of the panel significantly reduced.
For series [6], the system named is S. aureus biofilm. The series is described as above. The settings on record: S. aureus ATCC33591 and 7832; 100 U/ml in TGN; vs CT−; 1 biofilm/3 of the panel significantly reduced. On the procedure:
The effect of a treatment with the composition according to the invention on the biomass of biofilms was studied in a static model in 96-well plates. The curative enzyme treatment was carried out on a preformed 24-hour biofilm. To test its efficacy in reducing the biomass of biofilms, the composition according to the invention was brought into contact with the biofilm for 1 hour at 37° C. The enzyme solution was then removed, and the detached biomass was removed via rinsing steps. Crystal violet (CV) dye was then used to quantify residual biomass. […] CV staining was quantified via spectrophotometry by measuring the absorbance at 570 nm.
The different strains of S. aureus and P. aeruginosa (Table 1) were inoculated in 5 ml of TGN culture medium (Tryptic Soy Broth VWR+1% glucose+2% NaCl) from 20 μl of a stored glycerol stock at −80° C. […] The plates were then emptied, the biofilm was washed 2× with 200 μl PBS pH 7.5 (Sigma) and dried at 60° C. for 18 h before the biomass was analysed.
To quantify the residual biomass, a 1% CV solution (Sigma) was added to the biofilms at room temperature for 15 min. […] The dye attached to the biofilm was then detached and dissolved with 66% […] and absorbance at 570 nm (A570) was measured in a SpectraMax M3 multimode reader. This absorbance value corresponds to the biomass of the biofilm. […]

In the case of `CN[C@H](CC(C)C)C(=O)N[C@H]1C(=O)N[C@@H](CC(N)=O)C(=O)N[C@H]2C(=O)N[C@H]3C(=O)N[C@H](C(=O)N[C@H](C(=O)O)c4cc(O)cc(O)c4-c4cc3ccc4O)[C@H](O)c3ccc(c(Cl)c3)Oc3cc2cc(c3O[C@@H]2O[C@H](CO)[C@@H](O)[C@H](O)[C@H]2O[C@H]2C[C@](C)(N)[C@H](O)[C@H](C)O2)Oc2ccc(cc2Cl)[C@H]1O` [vancomycin], the “effect on viability in biofilm (in words)” value is on record as “does not significantly reduce viability in biofilm” in series [1]; “does not decrease viability in biofilm” in the series on S. aureus biofilm [2] (S. aureus ATCC33591, titanium coupons, absence of enzyme treatment (CT−, Tris-HCl)); “does not significantly reduce viability in biofilm” in the series on S. aureus biofilm [2] (S. aureus ATCC33591 and 144-20, absence of enzyme treatment (CT−, TGN)). For the same molecule, the “effect on viability of the biofilm (in words)” value in series [3] (20 mM TrisHCl pH7) is “only very slightly reduces”; in series [3] (TGN), “does not reduce”.

B1: subtilisin: protease from Bacillus licheniformis (Sigma) (protein, UniProt P00780 106-379, looked up)
Subtilisin Carlsberg: AQTVPYGIPLIKADKVQAQGFKGANVKVAVLDTGIQASHPDLNVVGGASFVAGEAYNTDGNGHGTHVAGTVAALDNTTGVLGVAPSVSLYAVKVLNSSGSGSYSGIVSGIEWATTNGMDVINMSLGGASGSTAMKQAVDNAYAKGVVVVAAAGNSGSSGNTNTIGYPAKYDSVIAVGAVDSNSNRASFSSVGAELEVMAPGAGVYSTYPTNTYATLNGTSMASPHVAGAAALILSKHPNLSASQVRNRLSSTATYLGSSFYYGKGLINVEAAAQ
Turning to B1, in the series on MG63 osteoblasts, the “concentration at which already toxic to osteoblasts” value is on record as “about 0.5 U/mL”. Besides, in series [4], the “effect on biofilms comprising Candida albicans (in words)” value is on record as “sensitised biofilms”.

B2: CE1: RNase I (Escherichia coli endoribonuclease, class EC4.6.1) 100 U/ml in TGN (protein, UniProt P21338 24-268, looked up)
Ribonuclease I: LALQAKQYGDFDRYVLALSWQTGFCQSQHDRNRNERDECRLQTETTNKADFLTVHGLWPGLPKSVAARGVDERRWMRFGCATRPIPNLPEARASRMCSSPETGLSLETAAKLSEVMPGAGGRSCLERYEYAKHGACFGFDPDAYFGTMVRLNQEIKESEAGKFLADNYGKTVSRRDFDAAFAKSWGKENVKAVKLTCQGNPAYLTEIQISIKADAINAPLSANSFLPQPHPGNCGKTFVIDKAGY
On to B2, for which the “effect on the decrease in the biomass percentage of the biofilms (in words)” value (in series [5]; with S. aureus biofilm [6]) was “little or no significant effect” throughout.
